According to patent publication US12479816B2, “20-HETE formation inhibitors” (UNIVERSITY OF PITTSBURGH—OF THE COMMONWEALTH SYSTEM OF …, priority 2019, dated 2025):

Target: T1, rCYP4F2 (Homo sapiens, UniProt P78329)
T1 sequence (P78329 5-520): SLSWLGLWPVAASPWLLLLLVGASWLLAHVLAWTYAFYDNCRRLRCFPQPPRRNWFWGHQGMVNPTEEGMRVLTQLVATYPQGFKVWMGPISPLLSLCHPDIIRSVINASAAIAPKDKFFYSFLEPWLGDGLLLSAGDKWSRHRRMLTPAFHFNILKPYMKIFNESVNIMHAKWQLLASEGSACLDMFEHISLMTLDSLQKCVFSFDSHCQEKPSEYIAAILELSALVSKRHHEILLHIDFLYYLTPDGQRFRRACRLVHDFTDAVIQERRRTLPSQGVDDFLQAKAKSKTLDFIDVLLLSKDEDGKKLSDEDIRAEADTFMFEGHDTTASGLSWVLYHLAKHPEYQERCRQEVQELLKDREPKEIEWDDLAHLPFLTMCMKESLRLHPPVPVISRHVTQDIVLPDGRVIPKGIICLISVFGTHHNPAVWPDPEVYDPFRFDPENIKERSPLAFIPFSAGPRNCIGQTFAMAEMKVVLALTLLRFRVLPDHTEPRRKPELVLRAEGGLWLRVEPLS
Assay: Inhibition of 20-HETE formation at 250 or 500 nM in rCYP4F2 incubations
Assay type: biochemical
Conditions: 250 nM compound; rCYP4F2 25 pmol/mL; read-out: rCYP4F2 % inh. @ 250 nM
In short: (§1)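 Liver or kidney microsomes (300 μg/ml) or rCYP4F2 (25 pmol/mL) were incubated with 100 μM arachidonic acid, 1 mM NADPH and compound at 250 or 500 nM in 0.12 M potassium phosphate/5 mM MgCl2 for 20 min at 37 °C. 20-HETE was measured by UPLC-MS/MS against 20-HETE-d6 and expressed as % of vehicle (n=3).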

| SMILES | inhibition at 0.25 µM |
| --- | --- |
| c1ccc(N2CCN(c3ccn[nH]3)CC2)cc1 [Compound 53, 1-Phenyl-4-(1H-pyrazol-5-yl)piperazine] | 3.9% |
| c1ccc(OC2CCN(c3ccn[nH]3)CC2)cc1 [Compound 55, 4-Phenoxy-1-(1H-pyrazol-5-yl)piperidine] | 0% |

Same assay, conditions: 500 nM compound; rCYP4F2 25 pmol/mL; read-out: rCYP4F2 % inh. @ 500 nM

| SMILES | inhibition at 0.5 µM |
| --- | --- |
| COc1cc(C2CCN(c3ccn[nH]3)CC2)ccn1 [Compound 16, 4-(1-(1H-Pyrazol-5-yl)piperidin-4-yl)-2-methoxypyridine] | 28% |
| Fc1ccc(C2CCN(c3cn[nH]c3)CC2)cc1 [Compound 17, 4-(4-Fluorophenyl)-1-(1H-pyrazol-4-yl)piperidine] | 83% |
| Fc1ccc(C2CCN(c3ccn[nH]3)CC2)cc1 [Compound 18, 4-(4-Fluorophenyl)-1-(1H-pyrazol-5-yl)piperidine] | 70% |
| CC(=O)N(C)c1ccc(C2CCN(c3ccn[nH]3)CC2)cc1 [Compound 27, N-(4-(1-(1H-Pyrazol-5-yl)piperidin-4-yl)phenyl)-N-methylacetamide] | 14% |
| COc1ccc(C2CCN(c3ccn[nH]3)CC2)cn1 [Compound 31, 5-(1-(1H-Pyrazol-5-yl)piperidin-4-yl)-2-methoxypyridine] | 44% |
| Cc1ccccc1C1CCN(c2ccn[nH]2)CC1 [Compound 35, 1-(1H-Pyrazol-5-yl)-4-(o-tolyl)piperidine] | 20% |

System: 20-HETE formation (CYP4) in RLM
Assay: Inhibition of 20-HETE formation at 250 or 500 nM in RLM microsomal incubations
Assay type: biochemical, rat
Conditions: 250 nM compound; RLM 300 μg/ml
In short: as §1

| SMILES | RLM % inh. @ 250 nM |
| --- | --- |
| c1ccc(N2CCN(c3ccn[nH]3)CC2)cc1 [Compound 53, 1-Phenyl-4-(1H-pyrazol-5-yl)piperazine] | 4.30% |
| c1ccc(OC2CCN(c3ccn[nH]3)CC2)cc1 [Compound 55, 4-Phenoxy-1-(1H-pyrazol-5-yl)piperidine] | 0.00% |

Same assay, conditions: 500 nM compound; RLM 300 μg/ml

| SMILES | RLM % inh. @ 500 nM |
| --- | --- |
| COc1cc(C2CCN(c3ccn[nH]3)CC2)ccn1 [Compound 16, 4-(1-(1H-Pyrazol-5-yl)piperidin-4-yl)-2-methoxypyridine] | 29.00% |
| Fc1ccc(C2CCN(c3cn[nH]c3)CC2)cc1 [Compound 17, 4-(4-Fluorophenyl)-1-(1H-pyrazol-4-yl)piperidine] | 57.00% |
| Fc1ccc(C2CCN(c3ccn[nH]3)CC2)cc1 [Compound 18, 4-(4-Fluorophenyl)-1-(1H-pyrazol-5-yl)piperidine] | 41.00% |
| CC(=O)N(C)c1ccc(C2CCN(c3ccn[nH]3)CC2)cc1 [Compound 27, N-(4-(1-(1H-Pyrazol-5-yl)piperidin-4-yl)phenyl)-N-methylacetamide] | 8.00% |
| COc1ccc(C2CCN(c3ccn[nH]3)CC2)cn1 [Compound 31, 5-(1-(1H-Pyrazol-5-yl)piperidin-4-yl)-2-methoxypyridine] | 0.00% |
| Cc1ccccc1C1CCN(c2ccn[nH]2)CC1 [Compound 35, 1-(1H-Pyrazol-5-yl)-4-(o-tolyl)piperidine] | 0.00% |

System: 20-HETE formation (CYP4) in HLM
Assay: Inhibition of 20-HETE formation at 250 or 500 nM in HLM microsomal incubations
Assay type: biochemical, human
Conditions: 250 nM compound; HLM 300 μg/ml, AA 100 μM, 20 min
In short: as §1

| SMILES | HLM % inh. @ 250 nM |
| --- | --- |
| c1ccc(N2CCN(c3ccn[nH]3)CC2)cc1 [Compound 53, 1-Phenyl-4-(1H-pyrazol-5-yl)piperazine] | 14.90% |
| c1ccc(OC2CCN(c3ccn[nH]3)CC2)cc1 [Compound 55, 4-Phenoxy-1-(1H-pyrazol-5-yl)piperidine] | 12.11% |

Same assay, conditions: 500 nM compound; HLM 300 μg/ml, AA 100 μM, 20 min

| SMILES | HLM % inh. @ 500 nM |
| --- | --- |
| COc1cc(C2CCN(c3ccn[nH]3)CC2)ccn1 [Compound 16, 4-(1-(1H-Pyrazol-5-yl)piperidin-4-yl)-2-methoxypyridine] | 27.00% |
| Fc1ccc(C2CCN(c3cn[nH]c3)CC2)cc1 [Compound 17, 4-(4-Fluorophenyl)-1-(1H-pyrazol-4-yl)piperidine] | 80.00% |
| Fc1ccc(C2CCN(c3ccn[nH]3)CC2)cc1 [Compound 18, 4-(4-Fluorophenyl)-1-(1H-pyrazol-5-yl)piperidine] | 66.00% |
| CC(=O)N(C)c1ccc(C2CCN(c3ccn[nH]3)CC2)cc1 [Compound 27, N-(4-(1-(1H-Pyrazol-5-yl)piperidin-4-yl)phenyl)-N-methylacetamide] | 20.00% |
| COc1ccc(C2CCN(c3ccn[nH]3)CC2)cn1 [Compound 31, 5-(1-(1H-Pyrazol-5-yl)piperidin-4-yl)-2-methoxypyridine] | 35.00% |
| Cc1ccccc1C1CCN(c2ccn[nH]2)CC1 [Compound 35, 1-(1H-Pyrazol-5-yl)-4-(o-tolyl)piperidine] | 20.00% |

System: not listed separately
Assay: Turbidometric solubility determination
Assay type: physicochemical
Conditions: PBS with 1% DMSO, aqueous buffer, kinetic from dmso stock, room temperature, OD620, read-out: Max Solub
Protocol: Solubility determinations shown in Table 3 were obtained turbidometrically and in a manner similar to the one described in Perez et al., J. Biomol. Screen, 2015, 20(2), 254-64. The method requires small volumes of 100× stock concentration drug solution to be prepared in DMSO 0, 0.23, 0.47, 0.94, 1.88, 3.75, 7.5, 15.0, 30.0 and […]. The stock drug concentrations are then diluted 1:100 added into triplicate wells containing PBS in a clear bottom 384 well microtiter to achieve final testing concentrations of 0, 2.3, 4.7, 9.4, 18.8, 37.5, 75, 150, 300, 600 μM in 1% DMSO. The plate is allowed to equilibrate with constant shaking for 2 hours at room temperature. The plate is then placed in a SpectroMax V plate reader to measure absorbance at 620 nm. Increase in absorbance is evident in test wells which precipitation of the compound is evident. The plot of OD620 vs. drug concentration is used to calculate the maximum solubility limit as determined by a statistically significant increase in absorbance above the background levels.

| SMILES | solubility at 2 h |
| --- | --- |
| CC(=O)N(C)c1ccc(C2CCN(c3ccn[nH]3)CC2)cc1 [Compound 27, N-(4-(1-(1H-Pyrazol-5-yl)piperidin-4-yl)phenyl)-N-methylacetamide] | > 600 µM |
| COc1ccc(C2CCN(c3ccn[nH]3)CC2)cn1 [Compound 31, 5-(1-(1H-Pyrazol-5-yl)piperidin-4-yl)-2-methoxypyridine] | > 600 µM |

Same assay, conditions: PBS with 1% DMSO, aqueous buffer, kinetic from dmso stock, room temperature, read-out: Solubility_ug/mL

| SMILES | solubility at 2 h |
| --- | --- |
| CC(=O)N(C)c1ccc(C2CCN(c3ccn[nH]3)CC2)cc1 [Compound 27, N-(4-(1-(1H-Pyrazol-5-yl)piperidin-4-yl)phenyl)-N-methylacetamide] | 179 µg/mL |
| COc1ccc(C2CCN(c3ccn[nH]3)CC2)cn1 [Compound 31, 5-(1-(1H-Pyrazol-5-yl)piperidin-4-yl)-2-methoxypyridine] | 155 µg/mL |

System: 20-HETE formation (CYP4) in RKM
Assay: Inhibition of 20-HETE formation at 250 or 500 nM in RKM microsomal incubations
Assay type: biochemical, rat
Conditions: 250 nM compound; RKM 300 μg/ml
Protocol: To screen the inhibitory effects against 20-HETE formation, compounds were screened in HLM, RLM, RKM and rCYP4F2 microsomal incubations. Compounds dissolved in either 100% methanol or 100% DMSO to yield 10 mM stock solution. Microsomal incubations containing HLM, RLM, RKM (300 μg/ml) or rCYP4F2 (25 pmol/mL), AA (100 μM), NADPH (1 mM) treated with test compounds at various concentrations (500 nM or 250 nM) in a 1 ml total volume in incubation buffer (0.12 M potassium phosphate buffer containing 5 mM magnesium chloride). Reaction was started by adding NADPH to the incubates and was carried out at 37° C. in a shaking water bath for 20 min. Reaction was stopped by placing tubes on ice, followed by adding 125 μl 20-HETE-d6 as internal standard to each sample. Microsomal incubations were extracted with 3 ml ethyl ether twice, dried down under nitrogen gas and reconstituted in 125 μl 80:20 methanol:deionized H2O for analysis. 20-HETE formation was quantified using a validated UPLC-MS/MS assay and normalized by vehicle group. Each compound had three replications (n=3). Vehicle group was used as control to calculate percentage of 20-HETE formation rate. HET0016 (250 nM) was used as positive control. Incubates without NADPH group served as the negative control. An Acquity ultra performance LC autosampler (Waters, Milford, MA) was used to isolate 20-HETE on an UPLC BEH C18, 1.7 μm (2.1×100 mm) reversed-phase column (Waters, Milford, MA) protected by a guard column (2.1×5 mm; Waters, Milford, MA) of the same packing material. Column temperature was maintained at 55° C. Mobile phases consisted of 0.005% acetic acid, 5% acetonitrile in deionized water (A) and 0.005% acetic acid in acetonitrile (B). The flow rate for mobile phases is 0.5 ml/min. The initial mixture of mobile phase was 65:35 of A and B. Mobile phase B increased at 0.4 minutes after injection from 35% to 70% in a linear gradient over 4 minutes, and again increased to 95% over 0.5 minutes where it remained for 0.3 minutes. This was followed by a linear return to initial conditions over 0.1 minutes with a 1.5 minute pre-equilibration period prior to the next sample run. Total run time was 6.4 minutes for each injection. Injection volumes were 7.5 μl. Mass spectrometric analysis was carried out using a TSQ Quantum Ultra (Thermo Fisher Scientific, San Jose, CA) triple quadrupole mass spectrometer using heated electrospray ionization (HESI). Mass spectrometer was operated in negative selective reaction monitoring (SRM) mode with unit resolutions at both Q1 and Q3 set at 0.70 Da full width at half maximum. Scan time was set at 0.01 s and collision gas pressure was 1.3 mTorr. Quantitation of 20-HETE by SRM was performed by monitoring the m/z. Analytical data was acquired and analyzed using Xcaliber 3.0 data system (ThermoFinnigan, San Jose, CA).

| SMILES | RKM % inh. @ 250 nM |
| --- | --- |
| c1ccc(N2CCN(c3ccn[nH]3)CC2)cc1 [Compound 53, 1-Phenyl-4-(1H-pyrazol-5-yl)piperazine] | 8.20% |
| c1ccc(OC2CCN(c3ccn[nH]3)CC2)cc1 [Compound 55, 4-Phenoxy-1-(1H-pyrazol-5-yl)piperidine] | 0.00% |

Same assay, conditions: 500 nM compound; RKM 300 μg/ml

| SMILES | RKM % inh. @ 500 nM |
| --- | --- |
| COc1cc(C2CCN(c3ccn[nH]3)CC2)ccn1 [Compound 16, 4-(1-(1H-Pyrazol-5-yl)piperidin-4-yl)-2-methoxypyridine] | 0.00% |
| Fc1ccc(C2CCN(c3cn[nH]c3)CC2)cc1 [Compound 17, 4-(4-Fluorophenyl)-1-(1H-pyrazol-4-yl)piperidine] | 25.00% |
| Fc1ccc(C2CCN(c3ccn[nH]3)CC2)cc1 [Compound 18, 4-(4-Fluorophenyl)-1-(1H-pyrazol-5-yl)piperidine] | 0.00% |
| CC(=O)N(C)c1ccc(C2CCN(c3ccn[nH]3)CC2)cc1 [Compound 27, N-(4-(1-(1H-Pyrazol-5-yl)piperidin-4-yl)phenyl)-N-methylacetamide] | 0.00% |
| COc1ccc(C2CCN(c3ccn[nH]3)CC2)cn1 [Compound 31, 5-(1-(1H-Pyrazol-5-yl)piperidin-4-yl)-2-methoxypyridine] | 9.00% |
| Cc1ccccc1C1CCN(c2ccn[nH]2)CC1 [Compound 35, 1-(1H-Pyrazol-5-yl)-4-(o-tolyl)piperidine] | 4.00% |
